Test results from patent US11440888B2, “Microbiocidal quinoline carboxamide derivatives” (SYNGENTA CROP PROTECTION AG, priority 2018, dated 2022).

| melting point | SMILES |
| --- | --- |
| 179 to 181 °C | Cc1c(NC(=O)C(Cl)(Cc2ccccc2)CC(F)(F)F)cnc2c(F)cccc12 (stereo not drawn) [E.01, 2-benzyl-2-chloro-4,4,4-trifluoro-N-(8-fluoro-4-methyl-3-quinolyl)butanamide] |
| 140 to 141 °C | Cc1c(NC(=O)C(Cl)(Cc2ccccc2)CC(C)C)cnc2c(F)cccc12 (stereo not drawn) [E.05, 2-benzyl-2-chloro-N-(8-fluoro-4-methyl-3-quinolyl)-4-methyl-pentanamide] |
| 106 to 108 °C | O=C(Nc1cnc2c(F)cccc2c1)C(Cl)(Cc1ccccc1)CC(F)(F)F (stereo not drawn) [E.06, 2-benzyl-2-chloro-4,4,4-trifluoro-N-(8-fluoro-3-quinolyl)butanamide] |
